How the values were obtained:
[1] = molecular target: GAPDH (Homo sapiens, UniProt P04406); conditions: covalent bond with active-site cysteine; cited from earlier work
[2] = molecular target: T1, MCT1 (Homo sapiens, UniProt P53985); test: 14C-3-BrPA uptake assay, wild type KBM7 cells; type: cell-based; conditions: wild type KBM7 in HBSS, up to 20 minutes, unlabeled competitor
T1 construct: endogenous in cells; host or cells: wild type KBM7 cells (near-haploid human cell line)
T1 sequence (P53985 1-500): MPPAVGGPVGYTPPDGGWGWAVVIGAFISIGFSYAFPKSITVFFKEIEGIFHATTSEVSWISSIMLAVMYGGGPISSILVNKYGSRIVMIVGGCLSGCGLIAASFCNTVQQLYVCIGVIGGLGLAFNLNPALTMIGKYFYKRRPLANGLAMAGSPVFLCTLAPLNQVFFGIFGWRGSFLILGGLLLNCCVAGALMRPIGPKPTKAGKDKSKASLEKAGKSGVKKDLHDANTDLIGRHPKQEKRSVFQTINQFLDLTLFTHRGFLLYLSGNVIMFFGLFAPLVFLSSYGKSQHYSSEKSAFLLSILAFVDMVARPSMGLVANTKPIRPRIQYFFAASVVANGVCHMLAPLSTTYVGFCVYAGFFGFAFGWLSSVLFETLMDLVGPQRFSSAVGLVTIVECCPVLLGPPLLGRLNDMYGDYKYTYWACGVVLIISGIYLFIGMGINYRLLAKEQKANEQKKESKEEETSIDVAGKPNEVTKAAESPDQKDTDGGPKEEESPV
T1 sequence (P35613 140-385 partner limits assumed): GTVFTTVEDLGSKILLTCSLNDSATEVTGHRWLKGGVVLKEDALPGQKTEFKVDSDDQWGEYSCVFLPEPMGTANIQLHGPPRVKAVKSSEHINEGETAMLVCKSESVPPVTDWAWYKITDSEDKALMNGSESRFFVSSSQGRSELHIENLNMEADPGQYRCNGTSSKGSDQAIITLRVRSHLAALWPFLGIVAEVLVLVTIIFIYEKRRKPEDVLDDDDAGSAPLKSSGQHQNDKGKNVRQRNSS
Description: Wild type KBM7 or MCT1-null cells were seeded in HBSS and exposed for up to 20 minutes to 100 μM ^14C-labeled 3-BrPA (6.8 mCi/mmole) (Moravek) with or without competitor molecules like 3-BrPA, Pyruvate, L-Lactate and D-Lactate. Cells were washed with cold HBSS, lysed in a NaOH buffer, and uptake measured using a liquid scintillation counter.

[3] = system: MCT1; conditions: cited from earlier work

Sequence of GAPDH (P04406 whole entry, species assumed): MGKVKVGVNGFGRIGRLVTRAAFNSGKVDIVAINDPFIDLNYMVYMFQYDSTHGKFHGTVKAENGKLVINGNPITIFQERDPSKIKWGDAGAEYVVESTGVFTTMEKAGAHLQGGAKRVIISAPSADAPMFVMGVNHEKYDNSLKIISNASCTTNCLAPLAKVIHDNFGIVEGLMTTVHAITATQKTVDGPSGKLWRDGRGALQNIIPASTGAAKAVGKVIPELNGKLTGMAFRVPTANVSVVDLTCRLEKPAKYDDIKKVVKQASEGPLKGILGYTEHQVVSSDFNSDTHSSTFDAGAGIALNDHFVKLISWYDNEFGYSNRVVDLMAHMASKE

CC1=C[C@@]23C(COC(=O)C24CO4)C(C(=O)O)=CC3[C@@H]1C (some centres unmarked) [Pentalenolactone]
inhibition of GAPDH [1]: potently inhibit

CC(C)C1CC[C@@]2(CO2)[C@H]2C(=O)OCC(C(=O)O)=C[C@H]12 (some centres unmarked) [koningic acid]
inhibition of GAPDH [1]: potently inhibit

CC(O)C(=O)O (centres unmarked) [lactate]
competition with the uptake of radiolabeled 3-BrPA [2]: to a lesser extent

N#C/C(=C\c1ccc(O)cc1)C(=O)O [α-cyano-4-hydroxycinnamate (CHC), α-cyano-4-hydroxycinnamate]
antitumor effect ([3]; alone or in combination with radiotherapy in mice): potent antitumor affects | toxicity ([3]; mice): without exerting overt toxicity
